Reference: publication PMC10114980, “Triple targeting of mutant EGFR^L858R/T790M, COX-2, and 15-LOX: design and synthesis of novel quinazolinone tethered phenyl urea derivatives for anti-inflammatory and anticancer evaluation” (Journal of Enzyme Inhibition and Medicinal Chemistry, 2023)

How the values were obtained:
A498 = assay: NCI single dose screen, A498; assay type: cell-based; details: Homo sapiens; A498, renal cancer; single dose 10^−5 M; read-out: growth inhibition percentage
Method: (§1) Screening of the anticancer activity of the newly synthesised compounds (6a, 6c, 6d, 6e, 6j, 6l, 6m, 6n, 6o, and 6p) was performed by the US National Cancer Institute (NCI) using 60 different human tumour cell lines in accordance with standard procedures formerly reported.
(§2) In vitro anticancer screening was carried out for the selected compounds at a single dose (10^−5 M) against 60 different human tumour cell lines of nine different cancer cell types: leukaemia, lung, colon, CNS, melanoma, ovarian, renal, prostate, and breast cancers.

SW-620 = assay: NCI single dose screen, SW-620; assay type: cell-based; details: Homo sapiens; SW-620, colon cancer; single dose 10^−5 M; read-out: growth inhibition percentage
Method: as §1, §2

human recombinant COX-2 = target: T1, human recombinant COX-2 (Homo sapiens, UniProt P35354); assay: In vitro COX-2 inhibition assay kit (Cayman); assay type: biochemical; details: for COX-2 SI: Selectivity index = COX-1 IC50/COX-2 IC50; for IC50: human recombinant COX-2, mean ± SEM, n = 3 replicates
T1 sequence (P35354 18-604): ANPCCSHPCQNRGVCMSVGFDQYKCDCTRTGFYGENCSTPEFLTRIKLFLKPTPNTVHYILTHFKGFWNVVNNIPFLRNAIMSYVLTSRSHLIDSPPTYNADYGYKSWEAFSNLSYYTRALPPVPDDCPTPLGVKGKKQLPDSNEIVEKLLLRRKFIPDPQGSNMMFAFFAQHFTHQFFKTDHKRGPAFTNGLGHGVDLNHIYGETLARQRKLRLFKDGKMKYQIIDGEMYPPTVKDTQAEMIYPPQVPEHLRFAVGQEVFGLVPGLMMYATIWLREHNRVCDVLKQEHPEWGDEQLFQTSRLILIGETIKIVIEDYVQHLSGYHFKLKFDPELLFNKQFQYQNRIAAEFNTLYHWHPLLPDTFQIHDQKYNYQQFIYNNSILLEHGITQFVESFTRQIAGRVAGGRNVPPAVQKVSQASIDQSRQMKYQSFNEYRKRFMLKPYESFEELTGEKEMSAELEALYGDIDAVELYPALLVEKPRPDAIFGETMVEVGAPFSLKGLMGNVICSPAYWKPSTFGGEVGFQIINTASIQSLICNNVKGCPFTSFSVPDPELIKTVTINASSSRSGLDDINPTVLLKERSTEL
Method: (§3) The half-maximal inhibitory concentration (IC50, μM) was determined, and the COX-2 selectivity index (SI) was calculated as IC50 (COX-1)/IC50 (COX-2).

HCC-2998 = assay: NCI single dose screen, HCC-2998; assay type: cell-based; details: Homo sapiens; HCC-2998, colon cancer; single dose 10^−5 M; read-out: growth inhibition percentage
Method: as §1, §2

NCI-H23 = assay: NCI single dose screen, NCI-H23; assay type: cell-based; details: Homo sapiens; NCI-H23, non-small cell lung cancer; single dose 10^−5 M; read-out: growth inhibition percentage
Method: as §1, §2

RPMI-8226 = assay: NCI single dose screen, RPMI-8226; assay type: cell-based; details: Homo sapiens; RPMI-8226, leukaemia; single dose 10^−5 M; read-out: growth inhibition percentage
Method: as §1, §2

OVCAR-8 = assay: NCI single dose screen, OVCAR-8; assay type: cell-based; details: Homo sapiens; OVCAR-8, ovarian cancer; single dose 10^−5 M; read-out: growth inhibition percentage
Method: as §1, §2

ovine COX-1 = target: T2, ovine COX-1 (Ovis aries, UniProt P05979); assay: In vitro COX-1 inhibition assay kit (Cayman); assay type: biochemical; details: mean ± SEM, n = 3 replicates
T2 sequence (P05979 25-600): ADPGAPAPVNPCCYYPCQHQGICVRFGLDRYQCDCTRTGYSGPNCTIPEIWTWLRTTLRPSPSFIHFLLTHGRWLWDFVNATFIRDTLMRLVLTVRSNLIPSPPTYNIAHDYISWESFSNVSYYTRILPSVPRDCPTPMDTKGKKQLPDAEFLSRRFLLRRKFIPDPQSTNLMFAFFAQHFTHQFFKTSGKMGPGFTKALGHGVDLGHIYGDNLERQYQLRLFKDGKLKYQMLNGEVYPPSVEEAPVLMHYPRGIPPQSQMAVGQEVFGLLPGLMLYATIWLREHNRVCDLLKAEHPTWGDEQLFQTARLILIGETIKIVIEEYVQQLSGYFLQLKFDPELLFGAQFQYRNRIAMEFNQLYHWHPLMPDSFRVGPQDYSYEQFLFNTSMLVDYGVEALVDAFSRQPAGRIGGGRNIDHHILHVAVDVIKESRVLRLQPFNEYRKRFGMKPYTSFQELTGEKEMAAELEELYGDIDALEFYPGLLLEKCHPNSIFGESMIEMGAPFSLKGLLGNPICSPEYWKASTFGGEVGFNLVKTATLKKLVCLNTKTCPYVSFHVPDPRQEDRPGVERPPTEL
Method: as §3

KM12 = assay: NCI single dose screen, KM12; assay type: cell-based; details: Homo sapiens; KM12, colon cancer; single dose 10^−5 M; read-out: growth inhibition percentage
Method: as §1, §2

SF-268 = assay: NCI single dose screen, SF-268; assay type: cell-based; details: Homo sapiens; SF-268, CNS cancer; single dose 10^−5 M; read-out: growth inhibition percentage
Method: as §1, §2

SR = assay: NCI single dose screen, SR; assay type: cell-based; details: Homo sapiens, leukaemia, single dose 10^−5 M, read-out: growth inhibition percentage
Method: as §1, §2

SNB-75 = assay: NCI single dose screen, SNB-75; assay type: cell-based; details: Homo sapiens; SNB-75, CNS cancer; single dose 10^−5 M; read-out: growth inhibition percentage
Method: as §1, §2

HT29 = assay: NCI single dose screen, HT29; assay type: cell-based; details: Homo sapiens, HT-29; HT29, colon cancer; single dose 10^−5 M; read-out: growth inhibition percentage
Method: as §1, §2

M14 = assay: NCI single dose screen, M14; assay type: cell-based; details: Homo sapiens; M14, melanoma; single dose 10^−5 M; read-out: growth inhibition percentage
Method: as §1, §2

NCI-H322M = assay: NCI single dose screen, NCI-H322M; assay type: cell-based; details: Homo sapiens, non-small cell lung cancer, single dose 10^−5 M, read-out: growth inhibition percentage
Method: as §1, §2

OVCAR-3 = assay: NCI single dose screen, OVCAR-3; assay type: cell-based; details: Homo sapiens; OVCAR-3, ovarian cancer; single dose 10^−5 M; read-out: growth inhibition percentage
Method: as §1, §2

RXF 393 = assay: NCI single dose screen, RXF 393; assay type: cell-based; details: Homo sapiens; RXF 393, renal cancer; single dose 10^−5 M; read-out: growth inhibition percentage
Method: as §1, §2

wild-type EGFR = target: T3, wild-type EGFR (Homo sapiens, UniProt P00533); assay: In vitro EGFR inhibition assay, wild type; assay type: biochemical; details: for IC50: read-out: EGFR^WT IC50
T3 construct: purchased AssayQuant Technologies, Inc. (Marlboro, MA, USA)

ACHN = assay: NCI single dose screen, ACHN; assay type: cell-based; details: Homo sapiens, renal cancer, single dose 10^−5 M, read-out: growth inhibition percentage
Method: as §1, §2

T3 sequence (P00533 25-1210): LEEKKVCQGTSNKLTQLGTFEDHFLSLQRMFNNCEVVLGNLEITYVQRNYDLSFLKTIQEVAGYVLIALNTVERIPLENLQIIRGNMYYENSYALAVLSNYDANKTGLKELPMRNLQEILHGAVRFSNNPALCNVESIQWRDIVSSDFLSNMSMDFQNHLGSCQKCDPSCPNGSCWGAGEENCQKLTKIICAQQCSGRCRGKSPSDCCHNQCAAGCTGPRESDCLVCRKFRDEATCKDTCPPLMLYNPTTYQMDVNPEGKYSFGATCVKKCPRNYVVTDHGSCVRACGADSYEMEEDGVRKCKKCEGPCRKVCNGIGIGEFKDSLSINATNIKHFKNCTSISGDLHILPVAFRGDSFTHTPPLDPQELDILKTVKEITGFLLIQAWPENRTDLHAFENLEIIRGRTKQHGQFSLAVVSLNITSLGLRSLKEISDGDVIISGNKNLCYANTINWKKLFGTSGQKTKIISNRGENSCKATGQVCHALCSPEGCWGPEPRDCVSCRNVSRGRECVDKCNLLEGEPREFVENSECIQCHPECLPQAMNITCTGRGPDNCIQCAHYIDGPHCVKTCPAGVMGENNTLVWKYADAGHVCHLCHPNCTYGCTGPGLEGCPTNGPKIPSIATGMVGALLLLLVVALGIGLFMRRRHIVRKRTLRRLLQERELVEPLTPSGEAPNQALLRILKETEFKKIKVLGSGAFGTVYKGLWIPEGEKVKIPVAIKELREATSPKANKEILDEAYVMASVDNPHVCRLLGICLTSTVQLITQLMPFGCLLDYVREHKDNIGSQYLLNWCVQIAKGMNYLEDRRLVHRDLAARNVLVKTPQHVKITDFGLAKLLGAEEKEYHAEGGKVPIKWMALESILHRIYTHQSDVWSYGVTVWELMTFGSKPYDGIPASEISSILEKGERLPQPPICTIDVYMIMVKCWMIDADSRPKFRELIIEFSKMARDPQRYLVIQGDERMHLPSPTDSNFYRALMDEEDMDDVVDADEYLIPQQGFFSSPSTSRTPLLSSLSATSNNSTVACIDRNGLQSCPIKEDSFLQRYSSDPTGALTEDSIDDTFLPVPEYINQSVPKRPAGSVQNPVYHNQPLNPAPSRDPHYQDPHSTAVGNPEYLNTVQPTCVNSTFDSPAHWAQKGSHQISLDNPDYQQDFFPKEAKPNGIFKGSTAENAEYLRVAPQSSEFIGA

Row | SMILES | inhibition at 10 µM (A498) [%] | inhibition at 10 µM (SW-620) [%] | COX-2 SI (human recombinant COX-2) | IC50 (human recombinant COX-2) [µM] | inhibition at 10 µM (HCC-2998) [%] | inhibition at 10 µM (NCI-H23) [%] | inhibition at 10 µM (RPMI-8226) [%] | melting point [°C] | inhibition at 10 µM (OVCAR-8) [%] | inhibition at 10 µM (KM12) [%] | inhibition at 10 µM (SF-268) [%] | inhibition at 10 µM (SR) [%] | inhibition at 10 µM (SNB-75) [%] | inhibition at 10 µM (HT29) [%] | inhibition at 10 µM (M14) [%] | inhibition at 10 µM (NCI-H322M) [%] | inhibition at 10 µM (OVCAR-3) [%] | inhibition at 10 µM (RXF 393) [%] | IC50 (wild-type EGFR) [µM] | inhibition at 10 µM (ACHN) [%] | other results
1 | CN1CN(NC(=O)Nc2ccccc2)C(=O)c2ccccc21 [Compound 6a, 1-(1-Methyl-4-oxo-1,4-dihydroquinazolin-3(2H)-yl)-3-phenylurea] | < 10 | < 10 | 0.18 | 68.3 ± 1.89 | < 10 | < 10 | < 10 | 240 to 241 | < 10 | < 10 | < 10 | < 10 | < 10 | < 10 | < 10 | < 10 | < 10 | < 10 | > 100 | < 10 | IC50 (ovine COX-1): 12.5 ± 1.36 µM; EGFR^WT IC50 (wild-type EGFR): no significant activity
2 | CN1c2ccccc2C(=O)N(NC(=O)Nc2ccc(F)cc2)C1c1ccccc1 (stereo not drawn) [Compound 6m, 1-(4-Fluorophenyl)-3-(1-methyl-4-oxo-2-phenyl-1,4-dihydroquinazolin-3(2H)-yl)urea] | < 10 | < 10 | 3.93 | 3.16 ± 1.22 | < 10 | < 10 | 16.1 | 220 to 222 | < 10 | < 10 | < 10 | < 10 | < 10 | < 10 | 18.9 | < 10 | 20.5 | < 10 | > 100 | < 10 | IC50 (ovine COX-1): 12.4 ± 2.74 µM
3 | COc1ccc(NC(=O)NN2C(=O)c3ccccc3N(C)C2c2ccc(OC)cc2)cc1 (stereo not drawn) [Compound 6j, 1-(4-Methoxyphenyl)-3-(2-(4-methoxyphenyl)-1-methyl-4-oxo-1,4-dihydroquinazolin-3(2H)-yl)urea] | < 10 | < 10 | 5.34 | 5.04 ± 1.56 | < 10 | < 10 | < 10 | 205 to 207 | < 10 | < 10 | < 10 | 11.6 | < 10 | < 10 | 29.6 | < 10 | 10.2 | < 10 | > 100 | < 10 | IC50 (ovine COX-1): 26.9 ± 3.03 µM
4 | CN1c2ccccc2C(=O)N(NC(=O)Nc2ccc(F)cc2)C1c1ccc(F)cc1 (stereo not drawn) [Compound 6n, 1-(4-Fluorophenyl)-3-(2–(4-fluorophenyl)-1-methyl-4-oxo-1,4-dihydroquinazolin-3(2H)-yl)urea] | < 10 | < 10 | 16.12 | 0.65 ± 1.3 | < 10 | < 10 | 33.1 | 214 to 216 | < 10 | 15.4 | 21.7 | 14.4 | 28.1 | < 10 | 23.2 | < 10 | 41.9 | < 10 | > 100 | 12.6 | IC50 (ovine COX-1): 10.5 ± 1.48 µM
5 | COc1ccc(C2N(NC(=O)Nc3ccc(F)cc3)C(=O)c3ccccc3N2C)cc1 (stereo not drawn) [Compound 6p, 1-(4-Fluorophenyl)-3-(2–(4-methoxyphenyl)-1-methyl-4-oxo-1,4-dihydroquinazolin-3(2H)-yl)urea] | < 10 | < 10 | 9.54 | 9.28 ± 1.04 | < 10 | < 10 | 11.2 | 224 to 226 | < 10 | < 10 | < 10 | < 10 | < 10 | < 10 | 11.8 | < 10 | 17.1 | < 10 | > 100 | < 10 | IC50 (ovine COX-1): 88.5 ± 3.01 µM
6 | CC1N(NC(=O)Nc2ccc(F)cc2)C(=O)c2ccccc2N1C (stereo not drawn) [Compound 6l, 1–(1,2-Dimethyl-4-oxo-1,4-dihydroquinazolin-3(2H)-yl)-3-(4-fluorophenyl)urea] | < 10 | < 10 | 0.05 | 1.49 ± 1.11 | < 10 | < 10 | < 10 | 187 to 190 | < 10 | < 10 | < 10 | < 10 | < 10 | < 10 | < 10 | < 10 | 16.9 | < 10 | > 100 | < 10 | –
